Measured values published in patent US20180117029A1, “Targeting Metabolic Vulnerability in Triple-Negative Breast Cancer” (Beth Israel Deaconess Medical Center, Inc., priority 2016, published 2018).

Tests used:
SUM-159PT cells [1] = assay: Propidium iodide viability assay in SUM-159PT cells; type: cell-based; conditions: for single-agent activity (percentage of dead cells) / sensitization of SUM-159PT cells to doxorubicin (percentage of dead cells): 80 μM PALA; for single-agent activity (percentage of dead cells): 0.3 μM brequinar or 20 μM A771726, without doxorubicin; for sensitization of SUM-159PT cells to doxorubicin (percentage of dead cells): 0.3 μM brequinar or 20 μM A771726 pre-treatment 12 hours
Method: Propidium iodide viability assay: Cell viability was assayed with a prodium iodide-based plate reader assay, as previously described (25). Briefly, cells in 96-well plates were treated with a final concentration of 30 μM propidium iodide for 60 minutes at 37° C. The initial fluorescence intensity was measured before digitonin was added to each well at a final concentration of 600 μM. After incubating for 30 minutes at 37° C., the final fluorescence intensity was measured. The fraction of dead cells was calculated by dividing the background-corrected initial fluorescence intensity by the final fluorescence intensity.

SUM-159PT cells [2] = assay: Fluorescence-based deoxyribonucleoside triphosphate assay in SUM-159PT cells; type: cell-based; conditions: for dCTP and dTTP (pyrimidine nucleoside triphosphate) levels, fluorescence-based assay: 0.5 μM doxorubicin or 12.5 μM cisplatin, 10 hours
Method: (§1) Deoxyribonucleoside triphosphate assay: Cells were maintained in full growth medium, and fresh medium was added at the time cells were treated with doxorubicin. In some cases, SUM-159PT cells were switched to Ham's F12 medium lacking glutamine. For metabolite extraction, medium was aspirated and ice-cold 60% (v/v) methanol was added. The insoluble material in lysates was pelleted by centrifugation at 10,000 g for 10 min. The resulting metabolite-containing supernatants were evaporated using a refridgerated SpeedVac. Samples were re-suspended in water and deoxyribonucleside triphosphate levels were measured as previously described (12).

[3] = clinical use; cited from earlier work
tumor xenograft models = conditions: single agent, references 22, 23; cited from earlier work
[4] = tested on: MDA-MB-231 tumor xenografts; assay: MDA-MB-231 xenograft combination therapy study (tumor volume); type: in vivo, nude mice; conditions: for growth of MDA-MB-231 tumor xenografts (tumor volume): leflunomide 7.5 mg/kg i.p., doxorubicin 1 mg/kg i.p., 28 days
Method: Xenograft studies: Female nude mice (6 weeks old) were purchased from Taconic and maintained and treated under specific pathogen-free conditions. All procedures were approved by the Institutional Animal Care and Use Committee at Beth Israel Deaconess Medical Center (BIDMC) and conform to the federal guidelines for the care and maintenance of laboratory animals. The mice were injected subcutaneously with 4×10^6 MDA-MB-231 cells in medium containing 50% growth-factor-reduced, phenol red-free Matrigel (Corning). Tumor formation was examined every two to three days for the duration of the experiment. […] Tumors were collected and flash-frozen 24 hours after animals were exposed to vehicle or doxorubicin. […] Leflunomide (7.5 mg/kg) was administered on days 1-7, 10, 14, 17, 21 and 24 by i.p. injection. Doxorubicin (1 mg/kg) was administered on days 1, 7, 14 and 21 by i.p. injection. Mice were weighed on days 1, 7, 14, 21 and 28. Tumor volume was calculated using the following equation: Tumor volume=(π/6)(W^2)(L), where W represents width, and L represents length.

[5] = tested on: human ovarian cancer cell lines (Karumochi, Ovcar3, Ovcar8, Skov3); assay: LC-MS/MS metabolite profiling of ovarian cancer cell lines; type: cell-based; conditions: 2.5 μM cisplatin or 0.5 μM doxorubicin, 24 hours
Method: We treated four different human ovarian cancer cell lines with 2.5 μM cisplatin or 0.5 μM doxorubicin for 24 hours and harvested polar metabolites. The samples were profiled using LC-MS/MS for 303 endogenous metabolites. As in breast cancer cells, we observed increases in pyrimidine metabolites (FIGS. 7A-D).

[6] = tested on: ovarian cancer cells (OVCAR3, OVCAR8); assay: Viability by propidium iodide uptake in ovarian cancer cells; type: cell-based, human; conditions: brequinar pre-treatment 16 h, then doxorubicin 48 hours
Method: Since ovarian cancers display an increase in pyrimidine nucleotides following chemotherapy, we investigated the ability of pyrimidine synthesis inhibitors to sensitize these cells to chemotherapy. Cells were treated with varying doses of doxorubicin in combination with the DHODH inhibitor brequinar for 48 hours, and viability measured by propidium iodide uptake. As observed in breast cancer cells, brequinar also sensitized ovarian cancer cells to doxorubicin (FIGS. 8A-B).

[7] = tested on: CAD, ERK and S6K1 phosphorylation in SUM-159PT cells; assay: Immunoblotting of CAD, ERK and S6K1 phosphorylation in SUM-159PT cells; type: cell-based
Method: (§2) Immunoblotting: Cells were washed with ice-cold PBS and lysed in radioimmunoprecipitation buffer (RIPA; 1% NP-40, 0.5% sodium deoxycholate, 0.1% SDS, 150 mmol/L NaCl, 50 mmol/L Tris-HCl, pH 7.5, protease inhibitor cocktail, 50 nmol/L calyculin A, 1 mmol/L sodium pyrophosphate, and 20 mmol/L sodium fluoride). Cell extracts were cleared by centrifugation and protein concentration was measured with the Bio-Rad DC protein assay. Lysates were then resolved on acrylamide gels by SDS-PAGE and transferred electrophoretically to nitrocellulose membrane (Bio-Rad). Blots were blocked in Tris-buffered saline (TBST) buffer (10 mmol/L Tris-HCl, pH 8, 150 mmol/L NaCl and 0.2% Tween 20) containing 5% (w/v) nonfat dry milk and then incubated with primary antibody overnight. Membranes were incubated with HRP-conjugated secondary antibody and developed using enhanced chemiluminescence substrate (EMD Millipore).

[8] = tested on: TNBC cell lines (HCC1143, MDA-MB-468, CAL51 and MDA-MB-231); assay: Fluorescence-based deoxyribonucleoside triphosphate assay in additional TNBC cell lines; conditions: 0.5 μM doxorubicin, 10 hours; HCC1143, MDA-MB-468, CAL51, MDA-MB-231
Method: as §1

[9] = tested on: MDA-MB-231 xenograft tumors; assay: LC-MS/MS metabolomics profiling of MDA-MB-231 xenograft tumors; type: in vivo, nude mice; conditions: 1 mg/kg doxorubicin, 24 hours, versus vehicle-treated tumors
Method: (§3) LC-MS/MS metabolomics profiling: For in vitro studies, SUM-159PT cells were maintained in full growth medium, and fresh medium was added at the time cells were treated with doxorubicin. For metabolite extraction, medium from biological triplicates was aspirated and ice-cold 80% (v/v) methanol was added. Cells and the metabolite-containing supernatants were collected and the insoluble material in lysates was pelleted by centrifugation at 10,000 g for 10 min. The resulting supernatant was evaporated using a refridgerated SpeedVac. For in vivo studies, ice-cold 80% (v/v) methanol was added to flash-frozen tumor tissue. Tissue was homogenized using a TissueLyser (Qiagen). The insoluble material was pelleted by centrifugation at 10,000 g for 10 min. The resulting supernatant was evaporated using a refridgerated SpeedVac. Samples were re-suspended using 20 μl HPLC-grade water for mass spectrometry. Ten microlitres was injected and analysed using a 5500 QTRAP hybrid triple quadrupole mass spectrometer (AB/SCIEX) coupled to a Prominence UFLC HPLC system (Shimadzu) with selected reaction monitoring (SRM). Peak areas from the total ion current for each metabolite SRM transition were integrated using MultiQuant v2.0 software (AB/SCIEX). Data analysis was performed using MetaboAnalyst.

[10] = tested on: de novo pyrimidine synthesis pathway in SUM-159PT cells; assay: Isotope labeling with L-glutamine (amide-15N), flux through de novo pyrimidine synthesis; type: cell-based; conditions: 0.5 μM doxorubicin, 4 hours, then 1 hour labeling
Method: Isotope labeling: Ham's F12 medium lacking glutamine (Sigma-Aldrich) was supplemented with 100 μM L-glutamine (amide-^15N). SUM-159PT cells were treated with doxorubicin for 4 hours, at which point medium containing doxorubicin was aspirated and labeled medium was added to the cells. After 1 hour of labeling, cellular metabolites were extracted as described above and quantified using SRM on a 5500 QTRAP mass spectrometer using a protocol to detect ^15N-labelled isotopologues of metabolites in the de novo pyrimidine synthesis pathway.

SUM-159PT cells [11] = assay: LC-MS/MS metabolomics profiling of SUM-159PT cells; type: cell-based; conditions: 0.5 μM doxorubicin, 10 hours, versus vehicle
Method: as §3

[12] = tested on: p-H2A.X (Ser139) in SUM-159PT cells; assay: H2A.X phosphorylation (DNA damage) by immunoblotting and immunofluorescence; type: cell-based; conditions: 0.5 μM doxorubicin, 10 hours
Method: as §2
Immunofluorescence: Cells plated on coverslips were fixed with 2% paraformaldehyde for 10 minutes, permeabilized with 0.5% Triton X-100, and blocked with 1% BSA in 20 mmol/L Tris-HCl, pH 7.5, for 20 minutes. Coverslips were then incubated with Alexa Fluor® 647—conjugated anti-phospho H2A.X 5139 antibody (1:100) for 3 hours. […] Images of cells were acquired using a fluorescence microscope (Nikon Eclipse Ti) and digital image analysis software (NIS-Elements, Nikon).

[13] = tested on: CAD phosphorylation in TNBC cell lines (HCC1143, MDA-MB-468, CAL-51 and MDA-MB-231); assay: Immunoblotting of CAD phosphorylation in additional TNBC cell lines; type: cell-based; conditions: 0.5 μM doxorubicin, 4 hours; HCC1143, MDA-MB-468, CAL51, MDA-MB-231
Method: as §2

SUM-159PT cells [14] = assay: Mitochondrial respiration (oxygen consumption rate, Seahorse analyzer); type: cell-based
Method: Mitochondrial respiration: Mitochondrial respiration was assessed using the Seahorse XFe-96 Analyzer (Seahorse Bioscience). SUM-159PT cells (50,000 cells per well) were treated with vehicle control, 0.5 μM Doxorubicin, 20 μM A771726, or the combination (A771726 & Doxorubicin) for 4 hours in normal media conditions. Following this incubation, media was changed to a non-buffered, serum-free Seahorse Media (Seahorse Bioscience, Catalog #102353) supplemented with 5 mM glucose, 2 mM L-glutamine, and 1 mM sodium pyruvate, and the oxygen consumption rate (OCR) was measured. In addition, OCR was measured for 30 minutes upon drug treatment and cells were subsequently challenged with either 1 μM Oligomycin or 0.5 μM Antimycin A to assess their effect on mitochondrial respiration. All experiments were normalized to cell number.

[15] = 40 μM PALA, 0.5 μM doxorubicin 10 hours

SMILES: O=C(O)C[C@H](NC(=O)CP(=O)(O)O)C(=O)O [PALA, N-(phosphonacetyl)-L-aspartate]
- single-agent activity (percentage of dead cells) (SUM-159PT cells [1]): minimal single-agent activity
- sensitization of SUM-159PT cells to doxorubicin (percentage of dead cells) (SUM-159PT cells [1]; then doxorubicin 48 hours): dramatically sensitized
- effect on doxorubicin-induced alterations in dTTP levels (SUM-159PT cells [2]; [15]): did not inhibit
- effect on increase in dCTP levels induced by doxorubicin (SUM-159PT cells [2]; [15]): effectively abrogated

SMILES: O=c1ccn([C@@H]2O[C@H](CO)[C@@H](O)[C@H]2O)c(=O)[nH]1 [uridine]
- rescue: effect on efficacy of the A771726 plus doxorubicin combination treatment (percentage of dead cells) (SUM-159PT cells [1]; 100 μM uridine with 20 μM A771726 pre-treatment 12 hours, then doxorubicin 48 hours): completely blocked

SMILES: Cc1oncc1C(=O)Nc1ccc(C(F)(F)F)cc1 [leflunomide]
- tolerability in humans [3]: well tolerated
- anti-tumor activity in tumor xenograft models (tumor xenograft models): anti-tumor activity
- growth of MDA-MB-231 tumor xenografts (tumor volume) [4]: did not significantly affect
- sensitization of MDA-MB-231 xenograft tumors to doxorubicin ([4]; leflunomide with doxorubicin 1 mg/kg): drastically sensitizes

SMILES: N.N.[Cl][Pt][Cl] [cisplatin]
- pyrimidine metabolite abundance, LC-MS/MS [5]: increases
- dCTP and dTTP (pyrimidine nucleoside triphosphate) levels, fluorescence-based assay (SUM-159PT cells [2]): Elevated levels

SMILES: Cc1c(-c2ccc(-c3ccccc3F)cc2)nc2ccc(F)cc2c1C(=O)O [brequinar]
- single-agent activity (percentage of dead cells) (SUM-159PT cells [1]): minimal single-agent activity
- sensitization of SUM-159PT cells to doxorubicin (percentage of dead cells) (SUM-159PT cells [1]; then doxorubicin 48 hours): dramatically sensitized
- sensitization of ovarian cancer cells to doxorubicin (viability) [6]: sensitized

SMILES: N#CC(=C(/N)Sc1ccccc1N)/C(C#N)=C(\N)Sc1ccccc1N [U0126]
- effect on doxorubicin-induced CAD Thr456 phosphorylation ([7]; 5 μM U0126 pre-treatment 12 hours, then 0.5 μM doxorubicin 4 hours): blocked
- effect on increase in pyrimidine nucleotides following doxorubicin exposure (SUM-159PT cells [2]; 5 μM U0126, 0.5 μM doxorubicin 10 hours): effectively suppressed

SMILES: COc1cccc2c1C(=O)c1c(O)c3c(c(O)c1C2=O)C[C@@](O)(C(=O)CO)C[C@@H]3O[C@H]1C[C@H](N)[C@H](O)[C@H](C)O1 [doxorubicin]
- ERK1/2 phosphorylation ([7]; 0.5 μM doxorubicin): increase
- phosphorylation state of CAD at the S6K1 site (Ser1859) ([7]; 0.5 μM doxorubicin): no measurable changes
- phosphorylation state of S6K1 ([7]; 0.5 μM doxorubicin): no measurable changes
- phosphorylation of CAD at the ERK site (Thr456) ([7]; 0.5 μM doxorubicin, within two hours): striking increase
- pyrimidine metabolite abundance, LC-MS/MS [5]: increases
- cell viability (percentage of dead cells) (SUM-159PT cells [1]; 0.5 μM doxorubicin alone, 48 hours, SUM-159PT): negligible effects on cell viability
- dCTP and dTTP (pyrimidine nucleoside triphosphate) levels, fluorescence-based assay (SUM-159PT cells [2]): robustly increased
- abundance of dCTP and dTTP [8]: increased the abundance
- abundance of pyrimidine nucleotide species in tumors, LC-MS/MS [9]: significant increase
- incorporation of 15N-glutamine label into N-carbamoyl-aspartate [10]: significant increase
- abundance of purine nucleotide species, LC-MS/MS (SUM-159PT cells [11]): elevated
- abundance of pyrimidine nucleotide species, LC-MS/MS (SUM-159PT cells [11]): increased the abundance of the majority of pyrimidine nucleotide species
- increase in deoxycytidine triphosphate (dCTP) level, LC-MS/MS (SUM-159PT cells [11]): greater than 2 fold
- increase in deoxythymidine triphosphate (dTTP) level, LC-MS/MS (SUM-159PT cells [11]): greater than 2 fold
- DNA damage (histone H2A.X phosphorylation) [12]: effectively induced DNA damage
- CAD Ser1859 phosphorylation [13]: No changes
- CAD Thr456 phosphorylation [13]: stimulated
- growth of MDA-MB-231 tumor xenografts (tumor volume) [4]: cytostatic
- oxygen consumption rate (OCR) (SUM-159PT cells [14]; 0.5 μM doxorubicin or 20 μM A771726, 4 hours, 50,000 SUM-159PT cells): negligible effect
- sensitivity of OCR to oligomycin and antimycin (SUM-159PT cells [14]; 0.5 μM doxorubicin, 1 μM oligomycin, 0.5 μM Antimycin A): did not affect sensitivity
